Assay results published in patent US9845322B2 (Hoffmann-La Roche Inc., priority 2016, dated 2017).

system: HBsAg secretion in HepG2.2.15 cells; assay: HBsAg assay (chemiluminescence immunoassay of secreted HBsAg in culture supernatant); format: cell-based, HBV; conditions: HepG2.2.15 cells; concentration at which HBsAg secretion was reduced by 50% compared to the no drug control; read-out: IC50 (HBsAg assay)
Procedure: HepG2.2.15 cells (Acs et al. Proc Natl Acad Sci USA, 84, (1987), 4641-4), a constitutively HBV-expressing cell line were cultured in DMEM+Glutamax-I medium (Invitrogen, Carlsbad, Calif., USA), supplemented with 10% fetal bovine serum (Invitrogen) and G418 (Invitrogen) at a final concentration of 200 mg/L and maintained in 5% CO2 at 37° C.
HepG2.2.15 cells were seeded in duplicate into white, 96-well plates at 1.5×10^4 cells/well. The cells were treated with a three-fold serial dilution series of the compounds in DMSO. The final DMSO concentration in all wells was 1% and DMSO was used as no drug control.
The HBsAg chemiluminescence immunoassay (CLIA) kit (Autobio Diagnostics Co., Zhengzhou, China, Catalog number: CL0310-2) was used to measure the levels of secreted HBV antigens semi-quantitatively. For the detection 50 μL/well culture supernatant was used and HBsAg was quantified using HBsAg chemiluminescence immunoassay (CLIA) kit (Autobio Diagnostics Co., Zhengzhou, China, Catalog number: CL0310-2), 50 μL of the supernatant was transferred to the CLIA assay plate and 50 μL of enzyme conjugate reagent was added into each well. The plates were sealed and gently agitated for 1 hour at room temperature. The supernatant-enzyme-mixture was discarded and wells were washed 6 times with 300 μL of PBS. The residual liquid was removed by plating the CLIA plate […] on absorbent tissue paper. 25 μL of substrates A and B were added to each well. Luminance was measured using a luminometer (Mithras LB 940 Multimode Microplate Reader) after 10 minutes incubation. Dose-response curves were generated and the IC50 value was extrapolated by using the E-WorkBook Suite (ID Business Solutions Ltd., Guildford, UK). The IC50 was defined as the compound concentration (or conditioned media log dilution) at which HBsAg secretion was reduced by 50% compared to the no drug control.
The compounds according to formula I were tested for their capacity to inhibit HBsAg as described herein.

SMILES | IC50 [nM]
CC1c2cnc(-c3ncccn3)nc2CCN1c1cc(N2CCCC2)cc(F)n1 (single isomer, unassigned; (+)) [Example 201, (+)-6-(6-fluoro-4-pyrrolidin-1-yl-2-pyridyl)-5-methyl-2-pyrimidin-2-yl-7,8-dihydro-5H-pyrido[4,3-d]pyrimidine] | 124
CC1c2cnc(-c3ncccn3)nc2CCN1c1cc(O)c(F)c(F)c1 (centres unmarked) [Example 44, 2,3-difluoro-5-(5-methyl-2-pyrimidin-2-yl-7,8-dihydro-5H-pyrido[4,3-d]pyrimidin-6-yl)phenol] | 494
COc1cc(F)cc(N2CCc3nc(-c4ncccn4)ncc3C2C)c1 (centres unmarked) [Example 72, 6-(3-fluoro-5-methoxy-phenyl)-5-methyl-2-pyrimidin-2-yl-7,8-dihydro-5H-pyrido[4,3-d]pyrimidine] | 22

same assay, conditions: Hepatitis B virus, HepG2.2.15, HepG2.2.15 cells; concentration at which HBsAg secretion was reduced by 50% compared to the no drug control; read-out: IC50 (HBsAg assay)

SMILES | IC50 [nM]
COc1cc(F)cc(N2CCc3cc(-c4ncccn4)ncc3C2C)c1 (centres unmarked) [Example 135, 2-(3-fluoro-5-methoxy-phenyl)-1-methyl-6-pyrimidin-2-yl-3,4-dihydro-1H-2,7-naphthyridine] | 15
COc1cc(F)nc(N2CCc3nc(-c4ccccn4)ncc3C2C)c1 (centres unmarked) [Example 153, 6-(6-fluoro-4-methoxy-2-pyridyl)-5-methyl-2-(2-pyridyl)-7,8-dihydro-5H-pyrido[4,3-d]pyrimidine] | 22
CC1c2cnc(-c3ncccn3)nc2CCN1c1cc(F)c(F)c(OCCCCCNC(=O)OC(C)(C)C)c1 (centres unmarked) [Example 56, tert-butyl N-[5-[2,3-difluoro-5-(5-methyl-2-pyrimidin-2-yl-7,8-dihydro-5H-pyrido[4,3-d]pyrimidin-6-yl)phenoxy]pentyl]carbamate] | 55
CCC1c2cnc(-c3ccccn3)nc2CCN1c1ccc(S(C)(=O)=O)cc1 (centres unmarked) [Example 4, 5-ethyl-6-(4-methylsulfonylphenyl)-2-(2-pyridyl)-7,8-dihydro-5H-pyrido[4,3-d]pyrimidine] | 1920
CC1c2cnc(-c3ncccn3)nc2CCN1c1cc(F)cc(OC2CCOCC2)n1 (centres unmarked) [Example 173, 6-(4-fluoro-6-tetrahydropyran-4-yloxy-2-pyridyl)-5-methyl-2-pyrimidin-2-yl-7,8-dihydro-5H-pyrido[4,3-d]pyrimidine] | 132
CC1c2cnc(-c3ncccn3)nc2CCN1c1cc(F)c(F)c(OCC2CC2)c1 (centres unmarked) [Example 88, 6-[3-(cyclopropylmethoxy)-4,5-difluoro-phenyl]-5-methyl-2-pyrimidin-2-yl-7,8-dihydro-5H-pyrido[4,3-d]pyrimidine] | 27
COc1cc(F)cc(N2CCc3nc(-c4ncccn4)ncc3C2C)c1Cl (single isomer, unassigned; (-)) [Example 131, (−)-6-(2-chloro-5-fluoro-3-methoxy-phenyl)-5-methyl-2-pyrimidin-2-yl-7,8-dihydro-5H-pyrido[4,3-d]pyrimidine] | 2
CC1c2cnc(-c3ncccn3)nc2CCN1c1cc(F)c(F)c(OCCCCCCCCNC(=O)OC(C)(C)C)c1 (centres unmarked) [Example 54, tert-butyl N-[8-[2,3-difluoro-5-(5-methyl-2-pyrimidin-2-yl-7,8-dihydro-5H-pyrido[4,3-d]pyrimidin-6-yl)phenoxy]octyl]carbamate] | 146
CC1c2cnc(-c3ncccn3)nc2CCN1c1cc(OC2CCOCC2)cc(F)n1 (centres unmarked) [Example 172, 6-(6-fluoro-4-tetrahydropyran-4-yloxy-2-pyridyl)-5-methyl-2-pyrimidin-2-yl-7,8-dihydro-5H-pyrido[4,3-d]pyrimidine] | 56
CC1c2cnc(-c3ccccn3)nc2CCN1c1cc(OCCCCCC(=O)O)cc(F)n1 (centres unmarked) [Example 170, 6-[[2-fluoro-6-[5-methyl-2-(2-pyridyl)-7,8-dihydro-5H-pyrido[4,3-d]pyrimidin-6-yl]-4-pyridyl]oxy]hexanoic acid] | 16
CC1c2cnc(-c3ccccn3)nc2CCN1c1cc(F)c(F)c(OCCCN2CCOCC2)c1 (centres unmarked) [Example 32, 4-[3-[2,3-difluoro-5-[5-methyl-2-(2-pyridyl)-7,8-dihydro-5H-pyrido[4,3-d]pyrimidin-6-yl]phenoxy]propyl]morpholine] | 74
